Paper PMC9961948, “Interaction of Amphipathic Peptide from Influenza Virus M1 Protein with Mitochondrial Cytochrome Oxidase” (International Journal of Molecular Sciences, 2023)

Target: T1, cytochrome c oxidase (CcO) purified from heart mitochondria (Bos taurus, UniProt P00396+P07471+P68530)
T1 construct: Cytochrome c oxidase was purified from the heart mitochondria of Bos taurus; from tissue; host or cells: bovine heart mitochondria
Assay: Cytochrome oxidase activity of solubilized mitochondrial CcO (oxygen uptake)
Format: biochemical
Conditions: solubilized bovine heart CcO 20 nM; oxygen uptake, Clark electrode, 25 °C; BM 50 mM Hepes/Tris pH 7.6, 50 mM KCl, 1 mM (0.05%) DM; 5 mM ascorbate, 0.1 mM TMPD, 10 μM cytochrome c; fit by Equation (1); read-out: Inhibition of CcO, Solubilized, Ki(app)

## Ac-STKLWEMLVELGNMDKAVKLWRKLSR-NH2 [A4]
  Ki: 0.0223 mM
